Legend:
[1] = tested on: cellular GSK3β signalling in PANC-1 cells; assay: Western blot of GSK3β signalling and NFkB target proteins in PANC-1 cells; assay type: cell-based; conditions: for phosphorylation of GSK3β: PANC-1 cells treated with compound; for β-catenin level: PANC-1 cells versus control (DMSO); for BCL2 and XIAP levels: compound with TRAIL versus TRAIL alone or compound alone; for bcl2 and xiap expression: dose dependence of compound; for Cyclin D1 levels / phosphorylation of GSK3β (9th serine residue): in combination with TRAIL; for p-GS (phosphorylated glycogen synthase) level: increasing concentrations of compound, total GS unaffected
Description: The compounds inhibiting GSK3β activity in-vitro added to PANC-1 cells to determine their potential against intracellular GSK3β signalling pathways in cancer cells. Briefly, PANC-1 cells were plated in 60 mm plates (100,000 cells/4 mL) and cultured in the standard DMEM medium containing 10% serum. After culturing for 18 hrs, different concentrations of test compounds or standard controls prepared in DMSO were added to culture media to achieve final concentration 0 to 100 μM of compound to cells. Cells were further continued to grow for 48 h with constant supply of 5% CO2 in humid incubator. The time course (0 to 48 h) experiment was carried out simultaneously with fixed concentration of compound showing 50% growth inhibition. At the end of the experiments, all cells were scraped directly in cold PBS and washed for 3 times before lysis directly in 2D lysis buffer (8M urea, 2M thiourea, 4% CHAPS, 4 mM tris base and 65 mM DTT) for isolation of proteins to perform western blots. The protein concentration was determined by modified Bradford assay.
To perform western blot, protein extracts were separated on 12% SDS-PAGE and electrophoretically (1 mA/cm^2 membrane for 1 hr) transferred onto the nitrocellulose membrane by semi-dry method. After protein transfer, membrane was stained with Ponceau S solution (0.2% Ponceau S in 3% Trichloroacetic acid) for 2 min to see efficiency of electrophoretic transfer. The membrane was destained in ddH2O to visualize the protein bands and further destained with TBST (20 mM Tris, 138 mM NaCl, pH 7.6 and 0.1% Tween 20) for blotting. To avoid non-specific detection of target proteins, blotted membranes were blocked with BSA (3% BSA in TBST solution). All antibodies against specific protein targets of interest were purchased from Cell Signaling Technology, USA if not mentioned specifically. Then the blots were incubated with antibodies prepared in blocking buffer (1:1000 Antibody to blocking buffer dilution) for 18 h with constant shaking at 4° C. Three washing steps in PBS each for 5 mins removed the excess and non-specific antibodies. For visualization, blots were incubated with secondary antibody conjugated to either horseradish peroxidase or alkaline phosphatase [anti-(mouse IgG) or anti-(rabbit IgG), diluted 1:5000 in TBST] for 1 h at room temperature. After three washes in PBS, the reaction was developed either by addition of LumiGLO substrate (Cell Signaling Technology) followed by capturing on X-ray film or addition of chromogenic NBT (nitro-blue tetrazolium chloride) and BCIP (5-bromo-4-chloro-3′-indolyphosphate p-toluidine salt) substrate for alkaline phosphatase developing purple colored bands. The blots were scanned for densitometry performed using Image-J program.

[2] = tested on: PANC-1 cells; assay: Cell viability, Sulforhodamine B assay; assay type: cell-based; conditions: for inhibition at 30 µM: Homo sapiens, PANC-1, 30 μM compound in combination with TRAIL (10 ηg/mL), read-out: inhibition of cell growth; for effectiveness against cell growth / sensitisation to TRAIL: in combination with TRAIL (10 ηg/mL), FIG. 3A
Description: Cell viability was measured using Sulforhodamine B assay. The cytotoxic effect of the compounds with GSK3β inhibitory potential was tested against PANC-1 cells. Initially, the PANC-1 cells were seeded in flat bottom 96-well plate (5000 cells/100 μL) in complete medium and cultured for 18 hrs under standard conditions. After 18 h the cells were treated with either the different concentration of compounds, standard drugs or DMSO as solvent control. The final DMSO concentration to cells was maintained <2% in all cytotoxic assays. Each compound was tested in triplicate and the cytotoxicity was determined as the average of that triplicate. Further, the plates were incubated for another 48 h in an incubator maintained at 37° C. with a constant supply of 5% CO2. The cells were fixed using 10% TCA and incubated for 1 h at 4° C. Then the plates were rinsed carefully with MQ water and air dried at room temperature. To all the wells of MTP plate 0.057% SRB solution was added and kept for approximately 30 min before it was rinsed off using 1% acetic acid. The plates were then air dried and 100 μL of 10 mM tris base was added to each well to solubilize the SRB before absorbance was measured at 510 nm. The measure of absorbance is directly proportional to cell growth and is thus used to calculate % reduction in the rate of cell proliferation according to control DMSO treated cells. All experiments were performed in triplicates; mean % age proliferation values with ±SD were plotted here.

SMILES | phosphorylation of GSK3β [1] | β-catenin level [1] | BCL2 and XIAP levels [1] | bcl2 and xiap expression [1] | Cyclin D1 levels [1] | phosphorylation of GSK3β (9th serine residue) [1] | p-GS (phosphorylated glycogen synthase) level [1] | inhibition at 30 µM [2] [%] | effectiveness against cell growth / sensitisation to TRAIL [2]
CCOC(=O)c1ccc(-c2ccccc2OCc2cn(CC3CC4(CO3)C(=O)Nc3ccccc34)nn2)nc1C (stereo not drawn) [AB-O, Ethyl 2-methyl-6-(2-((1-((2′-oxo-4,5-dihydro-2H-spiro[furan-3,3′-indoline]-5-yl)methyl)-1H-1,2,3-triazol-4-yl)methoxy)phenyl)nicotinate] | significantly decreased | accumulation of β-catenin | synergistic effect | decreased in a dose dependent manner | significantly reduced | synergistic effect | significantly decreased | 50 | more effective
COc1ccccc1N1CCN(CC2CC3(CO2)C(=O)Nc2ccccc23)CC1 (stereo not drawn) [AB-U, 5-((4-(2-Methoxyphenyl)piperazin-1-yl)methyl)-4,5-dihydro-2H-spiro[furan-3,3′-indolin]-2′-one] | significantly decreased | accumulation of β-catenin | synergistic effect | decreased in a dose dependent manner | significantly reduced | synergistic effect | significantly decreased | 50 | more effective

From patent US11306100B2, “Spirooxindole compounds as GSK3B inhibitors and process for preparation thereof” (COUNCIL OF SCIENTIFIC & INDUSTRIAL RESEARCH, priority 2017, dated 2022)
